Laboratory results reported in US7648983B2, “BACE inhibitors” (Eli Lilly and Company, priority 2008, dated 2010).
Counter-ions that a name gives are not always drawn. Like-named read-outs stand apart in the source and are kept apart here.

Tests used:
beta-secretase = target: T1, beta-secretase (Mus musculus, UniProt P56818); assay: In vivo inhibition of beta-secretase in PDAPP mice; conditions: 3 hours
T1 construct: from tissue; host or cells: living PDAPP mice; brain cortex, plasma and CSF analysed
Text: Several animal models, including mouse, guinea pig, dog, and monkey, may be used to screen for inhibition of beta-secretase activity in vivo following compound treatment. Animals used in this invention can be wild type, transgenic, or gene knockout animals. For example, the PDAPP mouse model, prepared as described in Games et al., Nature 373, 523-527 (1995), and other non-transgenic or gene knockout animals are useful to analyze in vivo inhibition of Abeta and sAPPbeta production in the presence of inhibitory compounds. Generally, 2 to 12 month old PDAPP mice, gene knockout mice or non-transgenic animals are administered compound formulated in vehicles, such as corn oil, cyclodextran, phosphate buffers, PHARMASOLVE®, or other suitable vehicles. One to twenty-four hours following the administration of compound, animals are sacrificed, and brains as well as cerebrospinal fluid and plasma are removed for analysis of Abetas, C99 and sAPP fragments. (See Dovey, et al., Journal of Neurochemistry, 76, 173-181 (2001); and Johnson-Wood, et al., Proc. Natl. Acad. Sci. USA, 94, 1550-1555 (1997)).
For standard efficacy studies, animals are dosed with various concentrations of compound and compared to a vehicle-treated control group dosed at the same time. For some time course studies, brain tissue, plasma or cerebrospinal fluid is obtained from selected animals, beginning at time 0 to establish a baseline. Compound is administered to other groups and sacrificed at various times after dosing. Brain tissue, plasma or cerebrospinal fluid is obtained from selected animals and analyzed for the presence of APP cleavage products, including Abeta peptides, sAPPbeta and other APP fragments, for example, by specific sandwich ELISA assays. At the end of the test period, animals are sacrificed and brain tissues, plasma or cerebrospinal fluid are analyzed for the presence of Abeta peptides, C99 and sAPPbeta. Brain tissues of APP transgenic animals are also analyzed for the amount of beta-amyloid plaques following compound treatment.
For example, 3 hours after administration of 100 mg/kg sub-cutaneous dose of the compound of example 19 to young male PDAPP mice, Abeta 1-x peptide, C99 and sAPPb levels are reduced approximately 30%, 50% and 20% in brain cortex, respectively, compared to vehicle-treated mice.

[1] = target: T2, beta-secretase (BACE) in HEK293/APP751sw cells (Homo sapiens, UniProt P56817); assay: HEK293Swe whole cell assay (Abeta ELISA); format: cell-based
T2 construct: endogenous in cells; host or cells: HEK293p (ATCC CRL-1573) stably expressing human APP751 Swedish
Description: (§1) For in vitro enzymatic and cellular assays, test compounds are prepared in DMSO to make up a 10 mM stock solution. The stock solution is serially diluted in DMSO to obtain a ten-point dilution curve with final compound concentrations ranging from […] to 1 pM in a 96-well round-bottom plate before conducting the in vitro enzymatic and whole cell assays.
The routine whole cell assay for the measurement of inhibition of beta-secretase activity utilizes the human embryonic kidney cell line HEK293p (ATCC Accession No. CRL-1573) stably expressing a human APP751 cDNA containing the naturally occurring double mutation Lys651Met652 to […], commonly called the Swedish mutation (noted HEK293/APP751sw) and shown to overproduce Abeta (Citron, et al., Nature, 360, 672-674 (1992)). In vitro Aβ reduction assays have been described in the literature (See Dovey, et al., Journal of Neurochemistry, 76, 173-181 (2001); Seubert, et al., Nature, 361, 260 (1993); and Johnson-Wood, et al., Proc. Natl. Acad. Sci. USA, 94, 1550-1555 (1997)).
(§2) Cells (HEK293/APP751sw at 3.5×10^4 cells/well, containing 200 μL culture media, DMEM containing 10% FBS) are incubated at 37° C. for 4 to 24 h in the presence/absence of inhibitors (diluted in DMSO) at the desired concentration. At the end of the incubation, conditioned media are analyzed for evidence of beta-secretase activity, for example, by analysis of Abeta peptides. Total Abeta peptides (Abeta 1-x) are measured by a sandwich ELISA, using monoclonal 266 as a capture antibody and biotinylated 3D6 as reporting antibody. Alternatively, Abeta 1-40 and Abeta 1-42 peptides are measured by a sandwich ELISA, using monoclonal 2G3 as a capture antibody for Abeta 1-40, and monoclonal 21F12 as a capture antibody for Abeta 1-42. Both Abeta 1-40 and Abeta 1-42 ELISAs use biotinylated 3D6 as the reporting antibody. The concentration of Abeta released in the conditioned media following the compound treatment corresponds to the activity of BACE under such conditions. The 10-point inhibition curve is plotted and fitted with the four-parameter logistic equation to obtain the EC50 and IC50 values for the Abeta-lowering effect.

[2] = target: T3, beta-secretase (BACE) in primary cortical neurons from PDAPP transgenic embryonic mice (Mus musculus, UniProt P56818); assay: PDAPP primary neuronal assay (Abeta ELISA); format: cell-based
T3 construct: endogenous in cells; host or cells: primary cortical neurons from Embryonic Day 16 PDAPP transgenic mouse embryos
Description: as §1
as §2, with “A confirmatory whole cell assay is also run in primary neuronal cultures generated from PDAPP transgenic embryonic mice. Primary cortical neurons are prepared from Embryonic Day 16 PDAPP embryos and cultured in 96 well plates (15×10^4 cells/well in DMEM/F12 (1:1) plus 10% FBS). After 4-6 days in vitro, culture media is replaced with serum free DMEM/F12 (1:1)” for “Cells (HEK293/APP751sw at 3.5×10^4 cells/well,”, “B27 supplement and neurons” for “200 μL culture media, DMEM containing 10% FBS)”, “for” for “for 4 to”, “effect. […]” for “effect.”

human BACE(1-460):Fc = target: T4, human BACE(1-460):Fc (Homo sapiens, UniProt P56817); assay: BACE FRET assay; format: biochemical
T4 construct: made in house; host or cells: HEK293 cells (transient, pJB02 vector), purified from conditioned media by Protein A
Description: as §1
Serial dilutions of test compounds are prepared as described above. Compounds are further diluted 20× in KH2PO4 buffer. Ten μL of each dilution is added to each well on row A to H of a corresponding low protein binding black plate containing the reaction mixture (25 μL of 50 mM KH2PO4, pH 4.6, 1 mM TRITON® X-100, 1 mg/mL Bovine Serum Albumin, and 15 μM of FRET substrate) (See Yang, et. al., J. Neurochemistry, 91(6) 1249-59 (2004)). The content is mixed well on a plate shaker for 10 minutes. Fifteen μL of two hundred pM human BACE(1-460):Fc (See Vasser, et al., Science, 286, 735-741 (1999)) in the KH2PO4 buffer is added to the plate containing substrate and test compounds to initiate the reaction. The RFU of the mixture at time 0 is recorded at excitation wavelength 355 nm and emission wavelength 460 nm, after brief mixing on a plate shaker. The reaction plate is covered with aluminum foil and kept in a dark humidified oven at room temperature for 16 to 24 h. The RFU at the end of incubation is recorded with the same excitation and emission setting. The difference of the RFU at time 0 and the end of incubation is representative of the activity of BACE under the compound treatment. RFU differences are plotted versus inhibitor concentration and a curve is fitted with a four-parameter logistic equation to obtain the EC50 and IC50 values. (See Sinha, et al., Nature, 402, 537-540 (2000)).
Human (accession number: AF190725) is cloned from total brain cDNA by […]. The nucleotide sequences corresponding to amino acid sequences #1 to 460 are inserted into the cDNA encoding human IgG1 (Fc) polypeptide (Vassar et al. 1999). This fusion protein of BACE(1-460) and human Fc, named huBACE:Fc, is constructed into the pJB02 vector. Human BACE(1-460):Fc (huBACE:Fc) is transiently expressed in HEK293 cells. 250 μg cDNA of each construct is mixed with Fugene 6 and added to 1 liter HEK293 cells. Four days after the transfection, conditioned media are harvested for purification.
huBACE:Fc is purified by Protein A chromatography. The enzyme is stored at −80° C. in small aliquots.

[3] = 30 mg/kg sub-cutaneous, young male PDAPP mice, brain, vs vehicle-treated mice
[4] = Table 27, Abeta 1-40 in conditioned media, read-out: HEK 293 Swe A-beta (1-40) ELISA IC50
[5] = Table 27, Abeta 1-42 in conditioned media, read-out: HEK 293 Swe A-beta (1-42) ELISA IC50
[6] = Table 28, Abeta 1-40 in conditioned media, 24 h, read-out: PDAPP Neuron A-beta (1-40) ELISA IC50
[7] = Table 28, Abeta 1-42 in conditioned media, 24 h, read-out: PDAPP Neuron A-beta (1-42) ELISA IC50
[8] = Table 26, purified recombinant huBACE:Fc, FRET substrate, pH 4.6
[9] = 100 mg/kg sub-cutaneous, young male PDAPP mice, vs vehicle-treated mice
[10] = Table 29, comparator of WO 2007/049532 and enantiomers, read-out: HEK 293 Swe A-beta (1-40) ELISA IC50
[11] = Table 29, comparator of WO 2007/049532 and enantiomers, read-out: HEK 293 Swe A-beta (1-42) ELISA IC50
[12] = Table 29, comparator of WO 2007/049532 and enantiomers
[13] = Table 29, comparator of WO 2007/049532 and enantiomers, read-out: PDAPP Neuron A-beta (1-40) ELISA IC50
[14] = Table 29, comparator of WO 2007/049532 and enantiomers, read-out: PDAPP Neuron A-beta (1-42) ELISA IC50

T4 sequence (P56817 22-460): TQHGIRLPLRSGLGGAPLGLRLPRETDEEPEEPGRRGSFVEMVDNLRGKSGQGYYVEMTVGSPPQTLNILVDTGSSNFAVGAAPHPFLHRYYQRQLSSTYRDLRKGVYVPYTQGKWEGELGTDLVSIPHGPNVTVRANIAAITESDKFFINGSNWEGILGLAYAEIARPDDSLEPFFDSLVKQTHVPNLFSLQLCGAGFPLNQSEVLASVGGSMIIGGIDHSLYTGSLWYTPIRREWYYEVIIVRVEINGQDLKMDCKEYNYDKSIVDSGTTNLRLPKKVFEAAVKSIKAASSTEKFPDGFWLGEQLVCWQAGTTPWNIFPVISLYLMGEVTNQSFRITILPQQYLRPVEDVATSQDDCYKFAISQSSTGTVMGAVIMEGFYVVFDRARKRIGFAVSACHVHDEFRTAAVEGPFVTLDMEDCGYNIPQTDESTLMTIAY
T3 sequence (P56818 46-501): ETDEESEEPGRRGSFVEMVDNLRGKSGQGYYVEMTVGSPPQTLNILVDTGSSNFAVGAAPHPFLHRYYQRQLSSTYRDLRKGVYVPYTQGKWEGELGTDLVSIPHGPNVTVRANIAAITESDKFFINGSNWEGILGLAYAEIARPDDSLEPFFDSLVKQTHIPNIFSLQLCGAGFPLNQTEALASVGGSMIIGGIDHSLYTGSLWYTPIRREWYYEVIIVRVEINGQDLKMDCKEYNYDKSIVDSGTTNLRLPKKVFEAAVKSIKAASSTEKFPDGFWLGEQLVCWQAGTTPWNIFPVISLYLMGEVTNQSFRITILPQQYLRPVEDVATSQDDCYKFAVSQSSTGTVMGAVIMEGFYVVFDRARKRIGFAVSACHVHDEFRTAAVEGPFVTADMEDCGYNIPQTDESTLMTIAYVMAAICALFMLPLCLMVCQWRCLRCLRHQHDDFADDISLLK
T1 sequence (P56818 46-501): as above
T2 sequence (P56817 46-501): as the sequence (P56818 46-501) above, with S6P, I162V, I165L, T180S, A182V, V340I, A393L, H443Q counted along it

| IC50 [1, 4] [µM] | IC50 [1, 5] [µM] | IC50 [2, 6] [µM] | IC50 [2, 7] [µM] | IC50 (human BACE(1-460):Fc; [8]) [µM] | IC50 [1, 10] [µM] | IC50 [1, 11] [µM] | IC50 (human BACE(1-460):Fc; [12]) [µM] | Structure (SMILES) | also measured |
| --- | --- | --- | --- | --- | --- | --- | --- | --- | --- |
| 0.335 | 0.48 | 0.288 | 0.214 | 0.42 |  |  |  | COc1cncc(-c2cccc([C@]3(C)CCSC(N)=N3)c2)c1.Cl.Cl [Example 19, (S)-4-[3-(5-Methoxy-pyridin-3-yl)-phenyl]-4-methyl-5,6-dihydro-4H-[1,3]thiazin-2-ylamine dihydrochloride] | Abeta 1-x peptide level reduction in brain cortex (beta-secretase; [9]): approximately 30%; C99 level reduction in brain cortex (beta-secretase; [9]): approximately 50%; sAPPb level reduction in brain cortex (beta-secretase; [9]): ~20% |
|  |  |  |  |  | 21.4 | 35.3 | 116 | CC1(c2ccc(-c3ccccc3)cc2)CCSC(N)=N1 (stereo not drawn) [reference compound] |  |
|  |  |  |  |  | 13.2 | 16.4 | 28 | C[C@@]1(c2ccc(-c3ccccc3)cc2)CCSC(N)=N1 [reference compound] | IC50 [2, 13]: 7.82 µM; IC50 [2, 14]: 10.4 µM |
|  |  |  |  |  | 16.5 | 23.7 | > 100 | C[C@]1(c2ccc(-c3ccccc3)cc2)CCSC(N)=N1 [reference compound] | IC50 [2, 13]: 28.1 µM; IC50 [2, 14]: 46.8 µM |

The remaining lines, values behind:

| Structure (SMILES) | IC50 [1, 4] [µM] | IC50 [1, 5] [µM] | IC50 [2, 6] [µM] | IC50 [2, 7] [µM] | IC50 (human BACE(1-460):Fc; [8]) [µM] | IC50 [1, 10] [µM] | IC50 [1, 11] [µM] | IC50 (human BACE(1-460):Fc; [12]) [µM] | also measured |
| --- | --- | --- | --- | --- | --- | --- | --- | --- | --- |
| C[C@@]1(c2cc(-c3cncnc3)c(F)cc2F)CCSC(N)=N1 [Example 5, (S)-4-(2,4-Difluoro-5-pyrimidin-5-yl-phenyl)-4-methyl-5,6-dihydro-4H-[1,3]thiazin-2-ylamine] |  |  |  |  |  |  |  |  | CSF Abeta 1-x level reduction (beta-secretase; 10 mg/kg oral, CSF): ~60%; plasma Abeta 1-x level reduction (beta-secretase; 10 mg/kg oral, plasma): approximately 50%; Abeta 1-x peptide level reduction (beta-secretase; [3]): approximately 50%; C99 level reduction (beta-secretase; [3]): ~45%; sAPPb level reduction (beta-secretase; [3]): approximately 30% |
| C[C@@]1(c2ccc(F)c(-c3cnccn3)c2)CCSC(N)=N1 [Example 12, (S)-4-(4-fluoro-3-(pyrazin-2-yl)phenyl)-4-methyl-5,6-dihydro-4H-1,3-thiazin-2-amine dihydrochloride] | 1.3 | 0.948 | 0.658 | 0.648 | 0.833 |  |  |  |  |
| CC1(C)C[C@@](C)(c2ccc(F)c(-c3cncnc3)c2)N=C(N)S1 [Example 21, (S)-4-(4-fluoro-3-(pyrimidin-5-yl)phenyl)-4,6,6-trimethyl-5,6-dihydro-4H-1,3-thiazin-2-amine] | 0.863 | 0.803 | 0.355 | 0.429 | 0.867 |  |  |  |  |
